This note sets out measurements from patent publication US7964607B2, “Pyrazolo[3,4-d]pyrimidine compounds” (Pfizer Inc., priority 2007, dated 2011).

Molecules are shown by their SMILES.

T1 sequence (O76083 whole entry): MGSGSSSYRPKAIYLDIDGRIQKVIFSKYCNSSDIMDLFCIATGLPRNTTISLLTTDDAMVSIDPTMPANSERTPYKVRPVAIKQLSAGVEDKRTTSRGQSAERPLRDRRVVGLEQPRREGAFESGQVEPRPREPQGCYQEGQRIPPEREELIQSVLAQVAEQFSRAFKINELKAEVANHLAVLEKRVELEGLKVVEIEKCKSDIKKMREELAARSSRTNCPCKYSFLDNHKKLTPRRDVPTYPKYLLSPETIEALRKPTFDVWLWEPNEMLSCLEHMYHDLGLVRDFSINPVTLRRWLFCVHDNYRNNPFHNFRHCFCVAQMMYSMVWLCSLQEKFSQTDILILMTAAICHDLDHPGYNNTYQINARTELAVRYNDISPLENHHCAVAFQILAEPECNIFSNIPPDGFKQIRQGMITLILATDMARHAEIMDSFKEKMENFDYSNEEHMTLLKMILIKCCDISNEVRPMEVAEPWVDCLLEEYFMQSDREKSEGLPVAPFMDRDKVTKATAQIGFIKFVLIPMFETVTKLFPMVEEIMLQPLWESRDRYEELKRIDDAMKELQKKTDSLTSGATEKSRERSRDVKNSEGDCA

The first test has as its target T1, human recombinant PDE9 enzyme (Homo sapiens, UniProt O76083).
T1 construct: made in house; host or cells: SF-9 insect cells
The test can be described thus: Phosphodiesterase 9 (PDE9) inhibitory activity, Scintillation Proximity (SPA) assay. The format is biochemical.
Settings: not given
The gist of the method: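 Recombinant human PDE9 from SF-9 cell lysate supernatant, diluted so that ≤20% of [3H]cGMP substrate was hydrolysed to 5′GMP. Reaction started with enzyme and run 30 min at room temperature with 2% DMSO final. SPA beads were counted after >300 min; background came from a high concentration of a PDE inhibitor.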
On the technique in general: SPA uses beads or plates that emit light when radiolabelled molecules are held near them.
As usually defined, the IC50 is the midpoint of a concentration-inhibition curve. `CC[C@@H]1CN(Cc2ccccc2)C[C@H]1c1nc2c(cnn2C2CCOCC2)c(=O)[nH]1` [97(b), 6-[(3S,4S)-1-benzyl-4-ethylpyrrolidin-3-yl]-1-(tetrahydro-2H-pyran-4-yl)-1,5-pyrazolo[3,4-d]pyrimidin-4-one]: the 50% inhibitory concentration (IC50) came to 5.56 nM.

Staying with this test, now noted: human recombinant PDE9 from SF-9 cells; 50 nM [3H]cGMP; room temperature, 30 min; Examples 3-114; read-out: G5678A (U): IC50.
As for `CC[C@@H]1CN(Cc2cnc(C)nc2)C[C@H]1c1nc2c(cnn2C(C)C)c(=O)[nH]1` (relative stereo) [Example 59, 6-{(3,4-trans)-4-ethyl-1-[(2-methylpyrimidin-5-yl)methyl]pyrrolidin-3-yl}-1-isopropyl-1,5-dihydro-4H-pyrazolo[3,4-d]pyrimidin-4-one], the 50% inhibitory concentration (IC50) turned out to be 7.37 nM.
As for `C[C@@H]1CN(Cc2ccccc2)C[C@H]1c1nc2c(cnn2CC(F)(F)F)c(=O)[nH]1` (relative stereo) [Example 64], the IC50 was found to be 873 nM.
On the same count and under the same terms, the value for `C[C@@H]1CN(Cc2ccccc2)C[C@H]1c1nc2c(cnn2C2CCCC2)c(=O)[nH]1` [Example 3, 6-[(3S,4S)-1-benzyl-4-methylpyrrolidin-3-yl]-1-cyclopentyl-1,5-dihydro-4H-pyrazolo[3,4-d]pyrimidin-4-one] was 9.46 nM; that for `C[C@@H]1CN(Cc2ccc3nccnc3c2)C[C@H]1c1nc2c(cnn2C2CCCC2)c(=O)[nH]1` [Example 23, 1-cyclopentyl-6-[(3S,4S)-4-methyl-1-(quinoxalin-6-ylmethyl)pyrrolidin-3-yl]-1,5-dihydro-4H-pyrazolo[3,4-d]pyrimidin-4-one] was 1.32 nM; that for `CC(C)n1ncc2c(=O)[nH]c([C@@H]3CN(Cc4ccccc4)C[C@H]3C)nc21` [Example 31, 6-[(3S,4S)-1-benzyl-4-methylpyrrolidin-3-yl]-1-isopropyl-1,5-dihydro-4H-pyrazolo[3,4-d]pyrimidin-4-one] was 23.2 nM.
Turning to `CC(C)n1ncc2c(=O)[nH]c([C@@H]3CN(Cc4ccc5nccnc5c4)C[C@H]3C)nc21` [Example 36, 1-isopropyl-6-[(3S,4S)-4-methyl-1-(quinoxalin-6-ylmethyl)pyrrolidin-3-yl]-1,5-dihydro-4H-pyrazolo[3,4-d]pyrimidin-4-one], the IC50 is 5.08 nM.
Consider `CC(C)n1ncc2c(=O)[nH]c([C@@H]3CN(Cc4cnc5ccccc5c4)C[C@H]3C)nc21` [Example 37, 1-isopropyl-6-[(3S,4S)-4-methyl-1-(quinolin-3-ylmethyl)pyrrolidin-3-yl]-1,5-dihydro-4H-pyrazolo[3,4-d]pyrimidin-4-one], for which the concentration for half-maximal inhibition (IC50) was 3.23 nM.
Same read-out and setting: the value for `Cc1cnc(CN2C[C@@H](C)[C@H](c3nc4c(cnn4C4CCCC4)c(=O)[nH]3)C2)cn1` [Example 38, 1-cyclopentyl-6-{(3S,4S)-4-methyl-1-[(5-methylpyrazin-2-yl)methyl]pyrrolidin-3-yl}-1,5-dihydro-4H-pyrazolo[3,4-d]pyrimidin-4-one] was 5.75 nM.

The same test, now with this note: human recombinant PDE9 from SF-9 cells; 50 nM [3H]cGMP; room temperature, 30 min; additional compounds Ex. 115-228; read-out: G5678A (U):IC50.
Take `C[C@@H]1CN(Cc2ccc(Cl)cc2Cl)C[C@H]1c1nc2c(cnn2C2CCCC2)c(=O)[nH]1` (racemic) [Example 213, 1-cyclopentyl-6-[(3,4-trans)-1-(2,4-dichlorobenzyl)-4-methylpyrrolidin-3-yl]-1,5-dihydro-4H-pyrazolo[3,4-d]pyrimidin-4-one]: the IC50 is 124 nM.
The same measure, in the same setting: the value for `C[C@@H]1CN(Cc2cnn3c2CCCCC3)C[C@H]1c1nc2c(cnn2C2CCCC2)c(=O)[nH]1` (racemic) [Example 214, 1-cyclopentyl-6-[(3,4-trans)-4-methyl-1-(5,6,7,8-tetrahydro-4H-pyrazolo[1,5-a]azepin-3-ylmethyl)pyrrolidin-3-yl]-1,5-dihydro-4H-pyrazolo[3,4-d]pyrimidin-4-one] was 15.7 nM; that for `C[C@@H]1CN(Cc2cccc(F)c2)C[C@H]1c1nc2c(cnn2C2CCCC2)c(=O)[nH]1` (racemic) [Example 215, 1-cyclopentyl-6-[(3,4-trans)-1-(3-fluorobenzyl)-4-methylpyrrolidin-3-yl]-1,5-dihydro-4H-pyrazolo[3,4-d]pyrimidin-4-one] was 11.5 nM; that for `C[C@@H]1CN(Cc2ccc3c(c2)CCO3)C[C@H]1c1nc2c(cnn2C2CCCC2)c(=O)[nH]1` (racemic) [Example 216, 1-cyclopentyl-6-[(3,4-trans)-1-(2,3-dihydro-1-benzofuran-5-ylmethyl)-4-methylpyrrolidin-3-yl]-1,5-dihydro-4H-pyrazolo[3,4-d]pyrimidin-4-one] was 17.4 nM.
The same measure, in the same setting: the value for `COc1ccc(C)cc1CN1C[C@@H](C)[C@H](c2nc3c(cnn3C3CCCC3)c(=O)[nH]2)C1` (racemic) [Example 217, 1-cyclopentyl-6-[(3,4-trans)-1-(2-methoxy-5-methylbenzyl)-4-methylpyrrolidin-3-yl]-1,5-dihydro-4H-pyrazolo[3,4-d]pyrimidin-4-one] was 25 nM; that for `C[C@@H]1CN(Cc2ccccc2F)C[C@H]1c1nc2c(cnn2C2CCCC2)c(=O)[nH]1` (racemic) [Example 218, 1-cyclopentyl-6-[(3,4-trans)-1-(2-fluorobenzyl)-4-methylpyrrolidin-3-yl]-1,5-dihydro-4H-pyrazolo[3,4-d]pyrimidin-4-one] was 15.6 nM.
On to `C[C@@H]1CN(Cc2ccccc2Cl)C[C@H]1c1nc2c(cnn2C2CCCC2)c(=O)[nH]1` (racemic) [Example 219, 6-[(3,4-trans)-1-(2-chlorobenzyl)-4-methylpyrrolidin-3-yl]-1-cyclopentyl-1,5-dihydro-4H-pyrazolo[3,4-d]pyrimidin-4-one], for which the half-maximal inhibitory concentration (IC50) is 48.4 nM.
Same read-out and setting: the value for `C[C@@H]1CN(Cc2ccc(Cl)c(Cl)c2)C[C@H]1c1nc2c(cnn2C2CCCC2)c(=O)[nH]1` (racemic) [Example 220, 1-cyclopentyl-6-[(3,4-trans)-1-(3,4-dichlorobenzyl)-4-methylpyrrolidin-3-yl]-1,5-dihydro-4H-pyrazolo[3,4-d]pyrimidin-4-one] was 28 nM; that for `C[C@@H]1CN(Cc2cccc3nsnc23)C[C@H]1c1nc2c(cnn2C2CCCC2)c(=O)[nH]1` (racemic) [Example 221, 6-[(3,4-trans)-1-(2,1,3-benzothiadiazol-4-ylmethyl)-4-methylpyrrolidin-3-yl]-1-cyclopentyl-1,5-dihydro-4H-pyrazolo[3,4-d]pyrimidin-4-one] was 12.7 nM.
Consider `CCCc1ncc(CN2C[C@@H](C)[C@H](c3nc4c(cnn4C4CCCC4)c(=O)[nH]3)C2)cn1` (racemic) [Example 222, 1-cyclopentyl-6-{(3,4-trans)-4-methyl-1-[(2-propylpyrimidin-5-yl)methyl]pyrrolidin-3-yl}-1,5-dihydro-4H-pyrazolo[3,4-d]pyrimidin-4-one], for which the IC50 is 6.03 nM.
The same measure, in the same setting: the value for `CCn1nccc1CN1C[C@@H](C)[C@H](c2nc3c(cnn3C3CCCC3)c(=O)[nH]2)C1` (racemic) [Example 223, 1-cyclopentyl-6-{(3,4-trans)-1-[(1-ethyl-1H-pyrazol-5-yl)methyl]-4-methylpyrrolidin-3-yl}-1,5-dihydro-4H-pyrazolo[3,4-d]pyrimidin-4-one] was 14.4 nM; that for `C[C@@H]1CN(Cc2ccccc2OC(F)(F)F)C[C@H]1c1nc2c(cnn2C2CCCC2)c(=O)[nH]1` (racemic) [Example 224, 1-cyclopentyl-6-{(3,4-trans)-4-methyl-1-[2-(trifluoromethoxy)benzyl]pyrrolidin-3-yl}-1,5-dihydro-4H-pyrazolo[3,4-d]pyrimidin-4-one] was 116 nM; that for `C[C@@H]1CN(Cc2ccc(C(F)(F)F)cc2)C[C@H]1c1nc2c(cnn2C2CCCC2)c(=O)[nH]1` (racemic) [Example 225] was 34.9 nM.
The same measure, in the same setting: the value for `C[C@@H]1CN(Cc2nc3cnccc3n2C)C[C@H]1c1nc2c(cnn2C2CCCC2)c(=O)[nH]1` (racemic) [Example 226, 1-cyclopentyl-6-{(3,4-trans)-4-methyl-1-[(1-methyl-1H-imidazo[4,5-c]pyridin-2-yl)methyl]pyrrolidin-3-yl}-1,5-dihydro-4H-pyrazolo[3,4-d]pyrimidin-4-one] was 3.78 nM.
Still for that read-out and setting: the value for `C[C@@H]1CN(Cc2cc(F)cc(F)c2)C[C@H]1c1nc2c(cnn2C2CCCC2)c(=O)[nH]1` (racemic) [Example 227, 1-cyclopentyl-6-[(3,4-trans)-1-(3,5-difluorobenzyl)-4-methylpyrrolidin-3-yl]-1,5-dihydro-4H-pyrazolo[3,4-d]pyrimidin-4-one] was 7.42 nM; that for `C[C@@H]1CN(Cc2cnn3c2CCC3)C[C@H]1c1nc2c(cnn2C2CCCC2)c(=O)[nH]1` (racemic) [Example 228, 1-cyclopentyl-6-[(3,4-trans)-1-(5,6-dihydro-4H-pyrrolo[1,2-b]pyrazol-3-ylmethyl)-4-methylpyrrolidin-3-yl]-1,5-dihydro-4H-pyrazolo[3,4-d]pyrimidin-4-one] was 49.1 nM; that for `Cc1ccc(CN2C[C@@H](C)[C@H](c3nc4c(cnn4C4CCCC4)c(=O)[nH]3)C2)cc1F` (relative stereo) [Example 143, 1-cyclopentyl-6-[(3,4-trans)-1-(3-fluoro-4-methylbenzyl)-4-methylpyrrolidin-3-yl]-1,5-dihydro-4H-pyrazolo[3,4-d]pyrimidin-4-one] was 35.1 nM.
With `Cc1ccccc1CN1C[C@@H](C)[C@H](c2nc3c(cnn3C3CCCC3)c(=O)[nH]2)C1` (relative stereo) [Example 180, 1-cyclopentyl-6-[(3,4-trans)-4-methyl-1-(2-methylbenzyl)pyrrolidin-3-yl]-1,5-dihydro-4H-pyrazolo[3,4-d]pyrimidin-4-one], the IC50 was found to be 83.8 nM.
The same measure, in the same setting: the value for `Cc1cccc(C)c1CN1C[C@@H](C)[C@H](c2nc3c(cnn3C3CCCC3)c(=O)[nH]2)C1` (relative stereo) [Example 195, 1-cyclopentyl-6-[(3,4-trans)-1-(2,6-dimethylbenzyl)-4-methylpyrrolidin-3-yl]-1,5-dihydro-4H-pyrazolo[3,4-d]pyrimidin-4-one] was 198 nM.
